Results as given in ChEMBL document CHEMBL4814037, “Synthesis of pyrazoline fatty chain derivatives and its effects on melanoma cells” (2021).
Calls of active or inactive are those of the source. The calls are words filed in the database; no cut-off is given here.

Tests used:
B16-F10 [1] = assay: Cytotoxicity against mouse B16-F10 cells assessed as cell viability at 3000 uM incubated for 48 hrs relative to control; type: functional; conditions: read-out: Activity
B16-F10 [2] = assay: Cytotoxicity against mouse B16-F10 cells assessed as cell viability at 3000 uM incubated for 72 hrs relative to control; type: functional; conditions: for viability at 3000 µM: read-out: Activity
B16-F10 [3] = assay: Cytotoxicity against mouse B16-F10 cells assessed as cell viability at 3000 uM incubated for 24 hrs relative to control; type: functional; conditions: for viability at 3000 µM: read-out: Activity
B16-F10 [4] = assay: Cytotoxicity against mouse B16-F10 cells assessed as decrease in cell viability at 3000 uM incubated for 72 hrs; type: functional, cell-based
B16-F10 [5] = assay: Cytotoxicity against mouse B16-F10 cells assessed as cell viability at 300 uM incubated for 48 hrs relative to control; type: functional; conditions: read-out: Activity
B16-F10 [6] = assay: Cytotoxicity against mouse B16-F10 cells assessed as cell viability at 300 uM incubated for 24 hrs relative to control; type: functional; conditions: read-out: Activity
B16-F10 [7] = assay: Cytotoxicity against mouse B16-F10 cells assessed as cell viability at 300 uM measured immediately relative to control; type: functional; conditions: read-out: Activity
B16-F10 [8] = assay: Cytotoxicity against mouse B16-F10 cells assessed as cell viability at 30 uM incubated for 48 hrs relative to control; type: functional; conditions: read-out: Activity
B16-F10 [9] = assay: Cytotoxicity against mouse B16-F10 cells assessed as cell viability at 30 uM incubated for 72 hrs relative to control; type: functional; conditions: read-out: Activity
B16-F10 [10] = assay: Cytotoxicity against mouse B16-F10 cells assessed as cell viability at 300 uM incubated for 72 hrs relative to control; type: functional; conditions: for viability at 300 µM: read-out: Activity
B16-F10 [11] = assay: Cytotoxicity against mouse B16-F10 cells assessed as cell viability at 3 uM incubated for 48 hrs relative to control; type: functional; conditions: read-out: Activity
B16-F10 [12] = assay: Cytotoxicity against mouse B16-F10 cells assessed as cell viability at 3 to 3000 uM measured after 48 to 72 hrs; type: functional, cell-based; conditions: dose 3-3000 µM, time 48-72 hrs

`CCCCCCC1=NN(C(N)=S)C(O)(C(F)(F)F)C1` (stereo not drawn) gave a viability at 3000 µM (B16-F10 [1]) of 8%, a viability at 3000 µM (B16-F10 [2]) of 8% and a viability at 3000 µM (B16-F10 [3]) of 16%.
`CC1=NN(C(N)=O)C(O)(C(F)(F)F)C1` (stereo not drawn) was tested, and the Activity (B16-F10 [4]) was “Active”.
Compound `CCCCCCCCCCCC1=NN(C(N)=O)C(O)(C(F)(F)F)C1` (stereo not drawn) has a viability at 300 µM (B16-F10 [5]) of 16%, a viability at 300 µM (B16-F10 [6]) of 17% and a viability at 300 µM (B16-F10 [7]) of 78%. The viability at 30 µM (B16-F10 [8]) was 76%, the viability at 30 µM (B16-F10 [9]) was 51% and the Activity (B16-F10 [4]) was “Active”.
With `CCCCCCC1=NN(C(N)=O)C(O)(C(F)(F)F)C1` (stereo not drawn) the viability at 300 µM (B16-F10 [5]) was 53%, the viability at 3000 µM (B16-F10 [1]) was 8% and the Activity (B16-F10 [10]) was “Active”. The Activity (B16-F10 [2]) was “Active” and the viability at 3000 µM (B16-F10 [3]) was 76%.
`NC(=O)N1N=CCC1(O)C(F)(F)F` (stereo not drawn) showed a viability at 300 µM (B16-F10 [5]) of 43%, a viability at 3000 µM (B16-F10 [1]) of 17% and a viability at 300 µM (B16-F10 [10]) of 17%. The viability at 3000 µM (B16-F10 [2]) was 7%.
In the case of `CCCCCCCCCCCC1=NN(C(N)=S)C(O)(C(F)(F)F)C1` (stereo not drawn), the viability at 300 µM (B16-F10 [5]) is reported as 18%, the viability at 300 µM (B16-F10 [10]) is reported as 10% and the viability at 300 µM (B16-F10 [6]) is reported as 17%. The viability at 30 µM (B16-F10 [8]) was 67% and the viability at 3 µM (B16-F10 [11]) was 89%.
`CC1=NN(C(N)=S)C(O)(C(F)(F)F)C1` (stereo not drawn) was tested, and the viability at 3000 µM (B16-F10 [1]) was 9%, the viability at 3000 µM (B16-F10 [2]) was 4% and the Activity (B16-F10 [3]) was “Active”.
For `NC(=S)N1N=CCC1(O)C(F)(F)F` (stereo not drawn), the inhibition (B16-F10 [12]) was “Active”.
